Source: ChEMBL document CHEMBL5252648, “Design, synthesis and bioactivity evaluation of a series of quinazolinone derivatives as potent PI3Kγ antagonist” (Bioorg Med Chem, 2023)
Calls of active or inactive are those of the source. No cut-off for these calls is given here.

Key:
THP-1 [1] = assay: Induction of apoptosis against human THP-1 cells assessed as viable cells at 10 uM measured for 24 hrs by Annexin V-FITC/propidium iodide staining based flow cytometry (reference value: 85.6%); assay type: functional; conditions: read-out: Activity
Jurkat [2] = assay: Induction of apoptosis against human Jurkat cells assessed as necrotic cells at 0.1 uM measured for 24 hrs by Annexin V-FITC/propidium iodide staining based flow cytometry (reference value: 0.00%); assay type: functional
[3] = molecular target: T1, Serine/threonine-protein kinase AKT (Homo sapiens) (UniProt P31751+Q9Y243+P31749); assay: Inhibition of AKT phosphorylation in human THP-1 cells at 1 uM incubated for 1 to 12 hrs by Western blot analysis relative to control; assay type: cell-based; conditions: time 1-12 hrs
B16-F10 = assay: Cytotoxicity against mouse B16-F10 cells assessed as reduction in cell viability incubated for 24 hrs by CCK-8 assay; assay type: functional, cell-based; conditions: B16-F10, 24 h
THP-1 [4] = assay: Induction of apoptosis against human THP-1 cells assessed as late apoptotic cells at 10 uM measured for 24 hrs by Annexin V-FITC/propidium iodide staining based flow cytometry (reference value: 3.70%); assay type: functional
Jurkat [5] = assay: Induction of apoptosis against human Jurkat cells assessed as necrotic cells at 1 uM measured for 24 hrs by Annexin V-FITC/propidium iodide staining based flow cytometry (reference value: 0.00%); assay type: functional
RAW264.7 [6] = assay: Cytotoxicity against mouse RAW264.7 cells assessed as reduction in cell viability incubated for 24 hrs by CCK-8 assay; assay type: functional, cell-based; conditions: RAW264.7, 24 h
[7] = molecular target: T1, Serine/threonine-protein kinase AKT (Homo sapiens); assay: Inhibition of AKT phosphorylation in human THP-1 cells incubated for 1 to 12 hrs by Western blot analysis relative to control; assay type: cell-based; conditions: dose 0.1-10 µM, time 1-12 hrs
Jurkat [8] = assay: Induction of apoptosis against human Jurkat cells assessed as early apoptotic cells at 0.1 uM measured for 24 hrs by Annexin V-FITC/propidium iodide staining based flow cytometry (reference value: 5.76%); assay type: functional
THP-1 [9] = assay: Induction of apoptosis against human THP-1 cells assessed as late apoptotic cells at 0.1 uM measured for 24 hrs by Annexin V-FITC/propidium iodide staining based flow cytometry (reference value: 3.70%); assay type: functional
RAW264.7 [10] = assay: Inhibition of AKT phosphorylation in mouse RAW264.7 cells at 1 uM incubated for 1 to 12 hrs by Western blot analysis relative to control; assay type: cell-based; conditions: time 1-12 hrs
THP-1 [11] = assay: Induction of apoptosis against human THP-1 cells assessed as necrotic cells at 1 uM measured for 24 hrs by Annexin V-FITC/propidium iodide staining based flow cytometry (reference value: 0.316%); assay type: functional
Jurkat [12] = assay: Upregulation of phosphorylated p38 protein expression in human Jurkat cells measured for 3 hrs; assay type: functional, cell-based; conditions: dose 0.1-10 µM
THP-1 [13] = assay: Induction of apoptosis against human THP-1 cells assessed as early apoptotic cells at 10 uM measured for 24 hrs by Annexin V-FITC/propidium iodide staining based flow cytometry (reference value: 10.3%); assay type: functional
THP-1 [14] = assay: Induction of apoptosis against human THP-1 cells assessed as early apoptotic cells at 1 uM measured for 24 hrs by Annexin V-FITC/propidium iodide staining based flow cytometry (reference value: 10.3%); assay type: functional
Jurkat [15] = assay: Induction of apoptosis against human Jurkat cells assessed as necrotic cells at 10 uM measured for 24 hrs by Annexin V-FITC/propidium iodide staining based flow cytometry (reference value: 0.00%); assay type: functional
[16] = molecular target: Phosphatidylinositol 4,5-bisphosphate 3-kinase catalytic subunit beta isoform (Homo sapiens, UniProt P42338); assay: Antagonist activity at PI3Kbeta (unknown origin) using PIP2 as substrate in presence of ATP incubated for 30 to 60 mins by ADP-glo based luminescence assay
Jurkat [17] = assay: Induction of apoptosis against human Jurkat cells assessed as late apoptotic cells at 0.1 uM measured for 24 hrs by Annexin V-FITC/propidium iodide staining based flow cytometry (reference value: 0.00%); assay type: functional
Jurkat [18] = assay: Induction of apoptosis against human Jurkat cells assessed as viable cells at 1 uM measured for 24 hrs by Annexin V-FITC/propidium iodide staining based flow cytometry (reference value: 94.2 %); assay type: functional; conditions: read-out: Activity
THP-1 [19] = assay: Induction of apoptosis against human THP-1 cells assessed as early apoptotic cells at 0.1 uM measured for 24 hrs by Annexin V-FITC/propidium iodide staining based flow cytometry (reference value: 10.3%); assay type: functional
Huh-7 = assay: Cytotoxicity against human Huh-7 cells assessed as reduction in cell viability incubated for 24 hrs by CCK-8 assay; assay type: functional, cell-based; conditions: Huh-7, 24 h
RAW264.7 [20] = assay: Inhibition of AKT phosphorylation in mouse RAW264.7 cells incubated for 1 to 12 hrs by Western blot analysis relative to control; assay type: cell-based; conditions: dose 0.1-10 µM, time 1-12 hrs
THP-1 [21] = assay: Induction of apoptosis against human THP-1 cells assessed as viable cells at 1 uM measured for 24 hrs by Annexin V-FITC/propidium iodide staining based flow cytometry (reference value: 85.6%); assay type: functional; conditions: read-out: Activity
Jurkat [22] = assay: Upregulation of phosphorylated p38 protein expression in human Jurkat cells at 1 uM measured for 3 hrs; assay type: functional, cell-based
THP-1 [23] = assay: Induction of apoptosis against human THP-1 cells assessed as necrotic cells at 10 uM measured for 24 hrs by Annexin V-FITC/propidium iodide staining based flow cytometry (reference value: 0.316%); assay type: functional
Jurkat [24] = assay: Cytotoxicity against human Jurkat cells assessed as reduction in cell viability incubated for 24 hrs by CCK-8 assay; assay type: functional, cell-based
Jurkat [25] = assay: Induction of apoptosis against human Jurkat cells assessed as late apoptotic cells at 1 uM measured for 24 hrs by Annexin V-FITC/propidium iodide staining based flow cytometry (reference value: 0.00%); assay type: functional
[26] = molecular target: T1, Serine/threonine-protein kinase AKT (Homo sapiens); assay: Inhibition of AKT phosphorylation in human Jurkat cells incubated for 1 to 12 hrs by Western blot analysis relative to control; assay type: cell-based; conditions: dose 0.1-10 µM, time 1-12 hrs

T1 sequence (P31749 whole entry, looked up): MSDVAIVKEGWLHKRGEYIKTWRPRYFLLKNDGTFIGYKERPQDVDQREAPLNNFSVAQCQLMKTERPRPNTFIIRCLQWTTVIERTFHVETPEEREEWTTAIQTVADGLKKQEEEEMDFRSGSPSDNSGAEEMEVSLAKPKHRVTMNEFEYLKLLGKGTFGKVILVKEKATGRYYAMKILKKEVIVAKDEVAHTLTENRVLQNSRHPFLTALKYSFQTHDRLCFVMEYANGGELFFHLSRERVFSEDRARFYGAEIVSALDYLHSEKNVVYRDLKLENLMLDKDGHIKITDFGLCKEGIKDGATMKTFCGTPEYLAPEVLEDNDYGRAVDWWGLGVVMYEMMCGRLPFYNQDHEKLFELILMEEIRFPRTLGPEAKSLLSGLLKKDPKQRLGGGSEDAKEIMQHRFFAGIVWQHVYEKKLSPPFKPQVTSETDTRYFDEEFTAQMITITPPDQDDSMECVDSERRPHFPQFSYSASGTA
T1 sequence (P31751 whole entry, looked up): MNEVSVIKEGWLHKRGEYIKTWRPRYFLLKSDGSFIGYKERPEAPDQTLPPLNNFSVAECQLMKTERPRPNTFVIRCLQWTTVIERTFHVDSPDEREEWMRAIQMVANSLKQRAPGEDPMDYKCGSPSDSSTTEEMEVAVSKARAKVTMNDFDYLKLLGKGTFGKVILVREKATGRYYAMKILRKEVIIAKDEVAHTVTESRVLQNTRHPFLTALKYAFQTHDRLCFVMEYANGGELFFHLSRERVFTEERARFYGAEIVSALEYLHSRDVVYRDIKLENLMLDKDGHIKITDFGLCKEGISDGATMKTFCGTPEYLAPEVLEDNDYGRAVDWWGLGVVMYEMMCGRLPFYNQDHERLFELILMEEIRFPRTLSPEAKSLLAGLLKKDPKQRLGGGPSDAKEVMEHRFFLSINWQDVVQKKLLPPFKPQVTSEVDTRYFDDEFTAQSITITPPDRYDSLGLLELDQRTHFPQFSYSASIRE
T1 sequence (Q9Y243 whole entry, looked up): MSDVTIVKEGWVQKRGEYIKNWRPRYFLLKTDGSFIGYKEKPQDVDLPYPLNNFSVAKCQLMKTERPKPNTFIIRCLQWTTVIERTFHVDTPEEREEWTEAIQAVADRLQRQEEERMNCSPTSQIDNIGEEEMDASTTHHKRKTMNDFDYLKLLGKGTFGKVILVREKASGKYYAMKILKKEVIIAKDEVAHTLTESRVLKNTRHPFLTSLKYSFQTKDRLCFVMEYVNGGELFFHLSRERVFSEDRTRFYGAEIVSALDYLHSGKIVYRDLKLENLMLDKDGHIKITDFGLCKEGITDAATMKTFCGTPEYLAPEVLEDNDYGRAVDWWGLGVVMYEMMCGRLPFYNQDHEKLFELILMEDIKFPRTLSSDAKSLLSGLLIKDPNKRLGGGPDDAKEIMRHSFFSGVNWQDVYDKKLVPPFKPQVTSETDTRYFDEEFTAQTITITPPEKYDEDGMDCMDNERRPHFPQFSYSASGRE
Sequence of Phosphatidylinositol 4,5-bisphosphate 3-kinase catalytic subunit beta isoform (P42338 whole entry, canonical isoform): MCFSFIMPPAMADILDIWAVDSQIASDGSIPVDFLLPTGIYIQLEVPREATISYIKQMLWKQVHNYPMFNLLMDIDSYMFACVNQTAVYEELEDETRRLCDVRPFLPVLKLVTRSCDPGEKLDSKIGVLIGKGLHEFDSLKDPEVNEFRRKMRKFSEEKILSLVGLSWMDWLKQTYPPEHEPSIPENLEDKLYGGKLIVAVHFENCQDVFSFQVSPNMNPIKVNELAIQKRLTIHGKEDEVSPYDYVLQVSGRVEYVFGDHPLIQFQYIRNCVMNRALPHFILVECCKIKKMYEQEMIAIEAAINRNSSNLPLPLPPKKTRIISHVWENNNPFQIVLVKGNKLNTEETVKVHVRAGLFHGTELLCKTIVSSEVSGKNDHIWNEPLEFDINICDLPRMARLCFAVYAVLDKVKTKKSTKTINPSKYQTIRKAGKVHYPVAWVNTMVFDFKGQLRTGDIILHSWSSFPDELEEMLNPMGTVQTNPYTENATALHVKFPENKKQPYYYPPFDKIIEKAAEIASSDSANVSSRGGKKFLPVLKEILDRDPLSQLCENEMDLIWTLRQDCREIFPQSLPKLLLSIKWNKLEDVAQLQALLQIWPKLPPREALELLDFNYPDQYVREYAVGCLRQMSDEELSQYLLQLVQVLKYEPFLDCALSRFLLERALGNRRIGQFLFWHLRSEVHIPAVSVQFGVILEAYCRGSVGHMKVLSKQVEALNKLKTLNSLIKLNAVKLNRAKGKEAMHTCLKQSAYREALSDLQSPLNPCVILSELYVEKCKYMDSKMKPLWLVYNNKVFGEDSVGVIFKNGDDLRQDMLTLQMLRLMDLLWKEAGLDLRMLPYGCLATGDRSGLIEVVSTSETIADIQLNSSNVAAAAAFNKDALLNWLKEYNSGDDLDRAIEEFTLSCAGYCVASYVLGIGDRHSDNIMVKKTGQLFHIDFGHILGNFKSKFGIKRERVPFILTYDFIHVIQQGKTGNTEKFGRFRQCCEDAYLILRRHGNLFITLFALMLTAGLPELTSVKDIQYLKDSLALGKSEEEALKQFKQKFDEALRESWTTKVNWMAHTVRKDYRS

With COc1ccc(C#Cc2cccc3cc(C(C)Nc4ncnc5[nH]cnc45)n(-c4ccccc4)c(=O)c23)cc1 (stereo not drawn) the viability at 10 µM (THP-1 [1]) was 60.7%, the Activity (Jurkat [2]) was 0% and the inhibition [3] was “Active”. For the same compound, the IC50 (B16-F10) was over 100 µM, the Activity (THP-1 [4]) was 14.6% and the Activity (Jurkat [5]) was 0%. For the same compound, the IC50 (RAW264.7 [6]) was 4.54 µM, the inhibition [7] was “Dose-Dependent Effect” and the Activity (Jurkat [8]) was 10.9%. For the same compound, the Activity (THP-1 [9]) was 7.85%, the inhibition (RAW264.7 [10]) was “Active” and the Activity (THP-1 [11]) was 0.041%. The Activity (Jurkat [12]) was “Dose-Dependent Effect”, the Activity (THP-1 [13]) was 24.6% and the Activity (THP-1 [14]) was 35.7%. It also gave an Activity (Jurkat [15]) of 0.016%, an IC50 [16] of 0.109 µM and an Activity (Jurkat [17]) of 0.025%. For the same compound, the viability at 1 µM (Jurkat [18]) was 82.3%, the Activity (THP-1 [19]) was 25.3% and the IC50 (Huh-7) was 5.05 µM. For the same compound, the inhibition (RAW264.7 [20]) was “Dose-Dependent Effect”, the viability at 1 µM (THP-1 [21]) was 59.6% and the Activity (Jurkat [22]) was “Active”. For the same compound, the Activity (THP-1 [23]) was 0.053%, the IC50 (Jurkat [24]) was 2.41 µM and the Activity (Jurkat [25]) was 0.042%. The inhibition [26] was “Dose-Dependent Effect”.
